Data on 20 molecules can be found in patent US20220323455A1, “FUSED HETEROCYCLIC DERIVATIVES AS ANTIVIRAL AGENTS” (priority 2019, published 2022).

For orientation: EC50 means the concentration needed to bring the measured effect to its halfway point.

This assay has as its system HBV. Briefly: HBV replication inhibition assay (BDNA assay) in HepG2.2.15 cells. In kind it is cell-based, Hepatitis B virus. The conditions noted are these: 6 days, encapsidated HBV DNA in supernatant. Here is the method: HBV replication inhibition by the disclosed compounds were determined in cells infected or transfected with HBV or cells with stably integrated HBV, such as HepG2.2.15 cells (Sells et al. 1987). In this example, HepG2.2.15 cells were maintained in cell culture medium containing 10% fetal bovine serum (FBS), Geneticin, L-glutamine, penicillin and streptomycin. HepG2.2.15 cells were seeded in 96-well plates at a density of 40,000 cells/well and were treated with serially diluted compounds at a final DMSO concentration of 0.5% either alone or in combination by adding drugs in a checker box format. Cells were incubated with compounds for three days, after which medium was removed and fresh medium containing compounds was added to cells and incubated for another three days. At day 6, supernatant was removed and treated with DNase at 37° C. for 60 minutes, followed by enzyme inactivation at 75° C. for 15 minutes. Encapsidated HBV DNA was released from the virions and covalently linked HBV polymerase by incubating in lysis buffer (Affymetrix QS0010) containing 2.5 μg proteinase K at 50° C. for 40 minutes. HBV DNA was denatured by addition of 0.2 M NaOH and detected using a branched DNA (BDNA) QuantiGene assay kit according to manufacturer recommendation (Affymetrix). HBV DNA levels were also quantified using qPCR, based on amplification of encapsidated HBV DNA extraction with QuickExtraction Solution (Epicentre Biotechnologies) and amplification of HBV DNA using HBV specific PCR probes that can hybridize to HBV DNA and a fluorescently labeled probe for quantitation. In addition, cell viability of HepG2.2.15 cells incubated with test compounds alone or in combination was determined by using CellTitre-Glo reagent according to the manufacturer protocol (Promega). The mean background signal from wells containing only culture medium was subtracted from all other samples, and percent inhibition at each compound concentration was calculated by normalizing to signals from HepG2.2.15 cells treated with 0.5% DMSO using equation E1.
% inhibition(DMSOave−Xi)DMSOave×100% E1:
where DMSOave is the mean signal calculated from the wells that were treated with DMSO control (0% inhibition control) and Xi is the signal measured from the individual wells. EC50 values, effective concentrations that achieved 50% inhibitory effect, were determined by non-linear fitting using Graphpad Prism software (San Diego, Calif.) and equation E2.
Y=Ymin+(Ymax−Ymin)/(1+10(Log EC50−X)×HillSlope) E2:
where Y represents percent inhibition values and X represents the logarithm of compound concentrations.
Selected disclosed compounds were assayed in the HBV replication assay (BDNA assay), as described above, and a representative group of these active compounds is shown in Table 5.

Structures are written as SMILES.

For `C[C@@H]1Cc2nn3c(c2CN1C(=O)Nc1ccc(F)c(C#N)c1)C(F)(F)CC[C@H](CO)C3` (relative stereo) [Example 75], for the setting “Hepatitis B virus, HepG2.2.15, 144 h”, the EC50 amounted to 5 nM.

Turning to `N#Cc1cc(NC(=O)N2CCc3nn4c(c3C2)C(F)(F)CCC(CO)C4)ccc1F` (single isomer, unassigned) [Example 19, (S*)—N-(3-Cyano-4-fluorophenyl)-11,11-difluoro-8-(hydroxymethyl)-3,4,8,9,10,11-hexahydro-1H-pyrido[4′,3′:3,4]pyrazolo[1,5-a]azepine-2(7H)-carboxamide], the EC50 is 4 nM.

For `O=C(Nc1ccc(F)c(C(F)(F)F)c1)N1CCc2nn3c(c2C1)C(F)(F)CCC(CO)C3` (single isomer, unassigned) [Example 20, (S*)-11,11-Difluoro-N-(4-fluoro-3-(trifluoromethyl)phenyl)-8-(hydroxymethyl)-3,4,8,9,10,11-hexahydro-1H-pyrido[4′,3′:3,4]pyrazolo[1,5-a]azepine-2(7H)-carboxamide], the EC50 was found to be 4 nM.

As to `N#Cc1c(F)ccc(NC(=O)N2CCc3nn4c(c3C2)C(F)(F)CCC(CO)C4)c1F` (single isomer, unassigned) [Example 21, (S*)—N-(3-Cyano-2,4-difluorophenyl)-11,11-difluoro-8-(hydroxymethyl)-3,4,8,9,10,11-hexahydro-1H-pyrido[4′,3′:3,4]pyrazolo[1,5-a]azepine-2(7H)-carboxamide], the EC50 was 1 nM.

Turning to `O=C(Nc1ccnc(Br)c1F)N1CCc2nn3c(c2C1)C(F)(F)CCC(CO)C3` (single isomer, unassigned) [Example 22, (S*)—N-(2-Bromo-3-fluoropyridin-4-yl)-11,11-difluoro-8-(hydroxymethyl)-3,4,8,9,10,11-hexahydro-1H-pyrido[4′,3′:3,4]pyrazolo[1,5-a]azepine-2(7H)-carboxamide], the EC50 came to 4 nM.

For the molecule `N#Cc1cc(NC(=O)N2CCc3nn4c(c3C2)C(F)(F)CCC(CO)C4)ccc1F` (single isomer, unassigned) [Example 23, (R*)—N-(3-Cyano-4-fluorophenyl)-11,11-difluoro-8-(hydroxymethyl)-3,4,8,9,10,11-hexahydro-1H-pyrido[4′,3′:3,4]pyrazolo[1,5-a]azepine-2(7H)-carboxamide], the EC50 amounted to 18 nM.

As for `O=C(Nc1ccc(F)c(C(F)(F)F)c1)N1CCc2nn3c(c2C1)C(F)(F)CCC(CO)C3` (single isomer, unassigned) [Example 24, (R*)-11,11-Difluoro-N-(4-fluoro-3-(trifluoromethyl)phenyl)-8-(hydroxymethyl)-3,4,8,91011-hexahydro-1H-pyrido[4′,3′:3,4]pyrazolo[1,5-a]azepine-2(7H)-carboxamide], the EC50 was 35 nM.

Consider `N#Cc1c(F)ccc(NC(=O)N2CCc3nn4c(c3C2)C(F)(F)CCC(CO)C4)c1F` (single isomer, unassigned) [Example 25, (R*)—N-(3-Cyano-2,4-difluorophenyl)-11,11-difluoro-8-(hydroxymethyl)-3,4,8,9,10,11-hexahydro-1H-pyrido[4′,3′:3,4]pyrazolo[1,5-a]azepine-2(7H)-carboxamide], for which the EC50 was determined as 34 nM.

Regarding `O=C(Nc1ccnc(Br)c1F)N1CCc2nn3c(c2C1)C(F)(F)CCC(CO)C3` (single isomer, unassigned) [Example 26, (R*)—N-(2-Bromo-3-fluoropyridin-4-yl)-11,11-difluoro-8-(hydroxymethyl)-3,4,8,9,10,11-hexahydro-1H-pyrido[4′,3′:3,4]pyrazolo[1,5-a]azepine-2(7H)-carboxamide], the EC50 worked out at 25 nM.

As to `N#Cc1cc(NC(=O)N2CCc3nn4c(c3C2)C(F)(F)CCC(COCC(F)F)C4)ccc1F` (single isomer, unassigned) [Example 27, (S*)—N-(3-Cyano-4-fluorophenyl)-8-((2,2-difluoroethoxy)methyl)-11,11-difluoro-3,4,8,9,10,11-hexahydro-1H-pyrido[4′,3′:3,4]pyrazolo[1,5-a]azepine-2(7H)-carboxamide], the EC50 was determined as 6 nM.

Take `O=C(Nc1ccc(F)c(C(F)(F)F)c1)N1CCc2nn3c(c2C1)C(F)(F)CCC(COCC(F)F)C3` (single isomer, unassigned) [Example 28, (S*)-8-((2,2-Difluoroethoxy)methyl)-11,11-difluoro-N-(4-fluoro-3-(trifluoromethyl)phenyl)-3,4,8,9,10,11-hexahydro-1H-pyrido[4′,3′:3,4]pyrazolo[1,5-a]azepine-2(7H)-carboxamide]: the EC50 worked out at 22 nM.

Turning to `N#Cc1cc(NC(=O)N2CCc3nn4c(c3C2)C(F)(F)CCC(COCC(F)F)C4)ccc1F` (single isomer, unassigned) [Example 29, (R*)—N-(3-Cyano-4-fluorophenyl)-8-((2,2-difluoroethoxy)methyl)-11,11-difluoro-3,4,8,9,10,11-hexahydro-1H-pyrido[4′,3′:3,4]pyrazolo[1,5-a]azepine-2(7H)-carboxamide], the EC50 is 78 nM.

Take `O=C(Nc1ccc(F)c(C(F)(F)F)c1)N1CCc2nn3c(c2C1)C(F)(F)CCC(COCC(F)F)C3` (single isomer, unassigned) [Example 30, (R*)-8-((2,2-Difluoroethoxy)methyl)-11,11-difluoro-N-(4-fluoro-3-(trifluoromethyl)phenyl)-3,4,8,9,10,11-hexahydro-1H-pyrido[4′,3′:3,4]pyrazolo[1,5-a]azepine-2(7H)-carboxamide]: the EC50 came to 267 nM.

`N#Cc1cc(NC(=O)N2CCc3nn4c(c3C2)C(F)(F)CCC(O)(COCC(F)F)C4)ccc1F` (single isomer, unassigned) [Example 31, (R*)—N-(3-Cyano-4-fluorophenyl)-8-((2,2-difluoroethoxy)methyl)-11,11-difluoro-8-hydroxy-3,4,8,9,10,11-hexahydro-1H-pyrido[4′,3′:3,4]pyrazolo[1,5-a]azepine-2(7H)-carboxamide]: the EC50 is 42 nM.

As to `O=C(Nc1ccnc(C(F)F)c1F)N1CCc2nn3c(c2C1)C(F)(F)CCC(O)(COCC(F)F)C3` (single isomer, unassigned) [Example 33, (R*)-8-((2,2-Difluoroethoxy)methyl)-N-(2-(difluoromethyl)-3-fluoropyridin-4-yl)-11,11-difluoro-8-hydroxy-3,4,8,9,10,11-hexahydro-1H-pyrido[4′,3′:3,4]pyrazolo[1,5-a]azepine-2(7H)-carboxamide], the EC50 worked out at 356 nM.

Turning to `N#Cc1cc(NC(=O)N2CCc3nn4c(c3C2)C(F)(F)CCC(O)(COCC(F)F)C4)ccc1F` (single isomer, unassigned) [Example 34, (S*)—N-(3-Cyano-4-fluorophenyl)-8-((2,2-difluoroethoxy)methyl)-11,11-difluoro-8-hydroxy-3,4,8,9,10,11-hexahydro-1H-pyrido[4′,3′:3,4]pyrazolo[1,5-a]azepine-2(7H)-carboxamide], the EC50 stood at 17 nM.

For the molecule `O=C(Nc1ccnc(Br)c1F)N1CCc2nn3c(c2C1)C(F)(F)CCC(O)(COCC(F)F)C3` (single isomer, unassigned) [Example 35, (S*)—N-(2-Bromo-3-fluoropyridin-4-yl)-8-((2,2-difluoroethoxy)methyl)-11,11-difluoro-8-hydroxy-3,4,8,9,10,11-hexahydro-1H-pyrido[4′,3′:3,4]pyrazolo[1,5-a]azepine-2(7H)-carboxamide], the EC50 was determined as 98 nM.

With `O=C(Nc1ccnc(C(F)F)c1F)N1CCc2nn3c(c2C1)C(F)(F)CCC(O)(COCC(F)F)C3` (single isomer, unassigned) [Example 36, (S*)-8-((2,2-Difluoroethoxy)methyl)-N-(2-(difluoromethyl)-3-fluoropyridin-4-yl)-11,11-difluoro-8-hydroxy-3,4,8,9,10,11-hexahydro-1H-pyrido[4′,3′:3,4]pyrazolo[1,5-a]azepine-2(7H)-carboxamide], the EC50 is 39 nM.

For the molecule `O=C(Nc1ccnc(Br)c1F)N1CCc2nn3c(c2C1)C(F)(F)CCC(O)(CF)C3` (single isomer, unassigned) [Example 39, (R*)—N-(2-Bromo-3-fluoropyridin-4-yl)-11,11-difluoro-8-(fluoromethyl)-8-hydroxy-3,4,8,9,10,11-hexahydro-1H-pyrido[4′,3′:3,4]pyrazolo[1,5-a]azepine-2(7H)-carboxamide], the EC50 is 144 nM.

For the molecule `N#CCC1(O)CCC(F)(F)c2c3c(nn2C1)CCN(C(=O)Nc1ccnc(Br)c1F)C3` (single isomer, unassigned) [Example 41, (R*)—N-(2-Bromo-3-fluoropyridin-4-yl)-8-(cyanomethyl)-11,11-difluoro-8-hydroxy-3,4,89,10,11-hexahydro-1H-pyrido[4′,3′:3,4]pyrazolo[1,5-a]azepine-2(7H)-carboxamide], the EC50 amounted to 52 nM.
